Like-named read-outs stand apart in the source and are kept apart here.
Key:
[1] = molecular target: T1, human GABAA α5β3γ2s receptor (Homo sapiens, UniProt P18507+P31644); assay: Assay A: in vitro inhibition of 3H-flumazenil binding, HEK cells expressing the human GABAA α5β3γ2s receptor
T1 sequence (P18507 1-475): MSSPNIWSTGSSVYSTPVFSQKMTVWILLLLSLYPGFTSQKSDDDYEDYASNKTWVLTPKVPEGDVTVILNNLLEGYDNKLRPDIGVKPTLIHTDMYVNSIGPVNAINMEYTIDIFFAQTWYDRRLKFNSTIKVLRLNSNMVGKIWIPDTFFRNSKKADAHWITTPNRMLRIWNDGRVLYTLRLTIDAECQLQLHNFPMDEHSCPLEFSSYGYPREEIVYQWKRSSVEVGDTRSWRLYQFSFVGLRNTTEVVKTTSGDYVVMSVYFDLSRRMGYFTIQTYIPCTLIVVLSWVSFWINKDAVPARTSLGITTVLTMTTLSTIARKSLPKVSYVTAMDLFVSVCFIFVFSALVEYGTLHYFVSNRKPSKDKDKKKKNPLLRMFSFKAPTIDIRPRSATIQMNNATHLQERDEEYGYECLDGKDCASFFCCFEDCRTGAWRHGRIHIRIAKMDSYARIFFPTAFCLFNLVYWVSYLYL
T1 sequence (P31644 1-462): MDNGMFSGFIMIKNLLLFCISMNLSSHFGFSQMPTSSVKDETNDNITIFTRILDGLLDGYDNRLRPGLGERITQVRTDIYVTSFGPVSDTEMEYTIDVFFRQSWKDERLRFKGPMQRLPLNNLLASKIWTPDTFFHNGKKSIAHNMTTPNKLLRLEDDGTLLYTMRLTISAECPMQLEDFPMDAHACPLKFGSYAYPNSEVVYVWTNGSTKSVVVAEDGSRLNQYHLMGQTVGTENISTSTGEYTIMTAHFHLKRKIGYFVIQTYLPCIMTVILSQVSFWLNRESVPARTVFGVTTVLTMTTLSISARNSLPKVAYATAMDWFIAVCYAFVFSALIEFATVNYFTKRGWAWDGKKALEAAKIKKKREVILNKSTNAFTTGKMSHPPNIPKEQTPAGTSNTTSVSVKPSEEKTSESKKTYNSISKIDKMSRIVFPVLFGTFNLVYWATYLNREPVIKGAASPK
Description: Cell Cultures and Membrane Preparation
HEK-293 cell lines with stable expression of recombinant human GABAA α5ß3 γ2s receptors (plasmid H46/E9/B10) are seeded in T175 polystyrene flasks or roller bottles (1700 cm^2, Fisher Scientific CCI-431191), and cultured (37° C., 5% CO2) in Dulbecco's Modified Eagle Medium (DMEM) with GlutaMAX™ supplemented with 10% fetal bovine serum and one or both of the following antibiotics: hygromycin B ([…]; γ2 subunit) or G418 (0.5 mg/ml; […]).
When the cultures reach confluency, the DMEM is removed and the cells are washed (10 ml for T175 flasks; 50 ml for roller bottles) once in Dulbecco's Phosphate Buffered Saline (DPBS). Following addition of DPBS to the cultures (10 ml for T175 flasks; 100 ml for roller bottles) for approximately 5 min cells are easily detached from the surface by shaking or tapping the flask gently. The cell suspension is transferred to Falcon tubes and centrifuged at 23,500×g for 10 min at 2° C. The pellet is washed once in 15 ml Tris-citrate buffer (50 mM, pH 7.1) using an Ultra-Turrax homogenizer and centrifuged at 2° C. for 10 min at 27,000×g. The washed pellet is re-suspended in 15 ml Tris-citrate buffer and frozen at −80° C. until the day of the binding experiment.
On the day of the experiment the cell membrane preparation is thawed and centrifuged at 2° C. for 10 min at 27,000×g. The pellet is re-suspended, using an Ultra-Turrax homogenizer in Tris-citrate buffer, to 15-50 µg protein per assay and then used for binding assays.
Non-specific binding is determined using clonazepam ([…]).
All dilutions of test compounds and incubation of assay are performed in glass vials/96-vial plates. […] Compounds are dissolved in 100% DMSO (10 mM stock), diluted in 48% ethanol-water, and tested in triplicate in serial 1:3 or 1:10 dilutions. When screening large numbers of compounds only one concentration of each compound is tested in single wells. Reference compounds are not included routinely, but for each experiment performed total and nonspecific binding is compared to data obtained during validation of the assay.
Binding is either terminated by rapid filtration onto
1) Whatman GF/C glass fibre filters using a Brandel Cell harvester, followed by 5 washes with 1 ml ice-cold buffer or onto 2) UniFilter GF/C glass fibre filter plates using a Tomtec cell harvester, followed by washing with approximately 5 ml ice-cold buffer.
The amount of radioactivity on the filters is determined by conventional liquid scintillation counting using a
1) Tri-Garb™ counter (PerkinElmer Life and Analytical Sciences) for separate large filters or
2) Topcount™ counter (PerkinElmer Life and Analytical Sciences) for 96-well filter plates.
Specific binding is total binding minus non-specific binding.
The IC50 value for a test compound is determined based on the equation: […]
where B is the binding in percentage of total specific binding; C is the concentration of test compound; and n is the Hill coefficient. For screening purposes n is set to 1. The IC50 value is calculated from the concentration response curves by the non-linear regression method using the curve-fitting program GraphPad Prism.
The Ki value for a test compound can be calculated from the IC50 value using the equation by Cheng and Prusoff: […]

[2] = molecular target: T2, α5ß2 γ2 GABAA Receptor (Homo sapiens, UniProt P18507+P31644); assay: Assay B: in vitro evaluation of modulation of α5ß2γ2 GABAA receptor, two-electrode voltage clamp in oocytes; format: cell-based; details: for EC50: co-application with 0.5 μM GABA, oocytes, read-out: Assay B: GABAA α 5 β 3 γ 2 EC50
T2 sequence (P31644 32-462): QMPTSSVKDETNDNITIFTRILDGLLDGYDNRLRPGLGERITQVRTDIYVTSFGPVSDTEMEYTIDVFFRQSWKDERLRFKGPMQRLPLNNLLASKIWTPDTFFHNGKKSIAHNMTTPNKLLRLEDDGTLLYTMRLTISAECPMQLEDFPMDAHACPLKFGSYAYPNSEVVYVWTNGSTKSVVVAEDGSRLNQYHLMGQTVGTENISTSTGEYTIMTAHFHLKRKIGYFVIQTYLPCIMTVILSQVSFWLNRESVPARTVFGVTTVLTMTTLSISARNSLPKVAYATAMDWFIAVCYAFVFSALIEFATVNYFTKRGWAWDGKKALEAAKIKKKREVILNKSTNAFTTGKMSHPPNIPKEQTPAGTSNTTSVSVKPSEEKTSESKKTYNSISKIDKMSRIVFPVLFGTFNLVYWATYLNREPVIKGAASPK
T2 sequence (P18507 40-376 limits assumed): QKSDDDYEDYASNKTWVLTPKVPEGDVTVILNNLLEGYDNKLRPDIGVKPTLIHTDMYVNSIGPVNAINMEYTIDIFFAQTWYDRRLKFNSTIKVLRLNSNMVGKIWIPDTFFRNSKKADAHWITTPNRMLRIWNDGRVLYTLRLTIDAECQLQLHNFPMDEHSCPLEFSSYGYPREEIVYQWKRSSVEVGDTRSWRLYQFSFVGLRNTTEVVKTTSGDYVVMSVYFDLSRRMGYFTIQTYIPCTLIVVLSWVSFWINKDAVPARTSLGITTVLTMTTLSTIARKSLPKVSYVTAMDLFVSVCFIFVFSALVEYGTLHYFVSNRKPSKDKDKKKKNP
Description: Assay B: In Vitro Evaluation of Modulation of α5ß2 γ2 GABAA Receptor.
Modulatory efficacy of compounds of formular (I) is determined electrophysiological recordings in oocytes using the two-electrode voltage clamp (TEVC) technique. Oocytes are injected with cRNA for human GABAA receptor subunits α5, ß2 and γ2 in a 3:1:3 ratio and modulatory efficacy is evaluated by co-applications with a submaximal EC5-20 GABA concentration (0.5 μM) termed GABA control. As a standard, the compounds are tested in five concentrations (3.16, 0.316, 0.0316, 0.00316 and 0.000316 μM) on each oocyte starting with the lowest concentration. Background subtracted peak current amplitudes are normalized to the respective GABAcontrol current, converted to % change and depicted +/−S.E.M. as a function of increasing compound concentrations. Plotted datapoints are fitted to the empirical Hill equation using non-linear regression. 95% confidence intervals for maximal efficacy (Bottom) and potency (Log EC50) are derived from this fitting routine.

[3] = comparison compounds of WO 2020/016433, read-out: Assay A: GABAA α5 β3 γ2S Ki
[4] = read-out: Assay A: GABAA α 5 β 3 γ 2s Ki

| SMILES | Ki [1, 3] | Assay B: GABAA α 5 β 3 γ 2 Emax vs GABA [2] | Ki [1, 4] | EC50 [2] | Ki ([1]; compounds of the present invention, read-out: Assay A: GABAA α5 β3 γ2S Ki) |
| --- | --- | --- | --- | --- | --- |
| CSc1ccc(-c2ccc(OCc3c(C)nnn3-c3ccc(C(F)F)cn3)nn2)cn1 [Example 10] | – | -8% | 9 nM | 75 nM | – |
| Cc1nnn(-c2ccc(C(F)F)cn2)c1COc1ccc(-n2ccnn2)nn1 [Example 44] | – | -17.7% | 14 nM | 14.1 nM | – |
| Cn1ccc(-c2ccc(OCc3c(-c4ccc(C(F)F)cn4)nnn3C)nn2)n1 [Example 34] | – | -17% | 25 nM | 4.2 nM | – |
| Cc1nnn(-c2ccc(C(F)F)cn2)c1COc1ccc(-c2cccc(C#N)n2)nn1 [Example 11] | – | -13.5% | 9 nM | 37.5 nM | – |
| CCn1cc(-c2ccc(OCc3c(C)nnn3-c3ccc(C(F)F)cn3)nn2)ccc1=O [Example 21] | – | -4% | 10 nM | – | – |
| Cc1nccn1-c1ccc(OCc2c(-c3ccc(C(F)F)cn3)nnn2C)nn1 [Example 47] | – | -7% | 120 nM | 15.5 nM | – |
| CCc1nccn1-c1ccc(OCc2c(-c3ccc(C(F)F)cn3)nnn2C)nn1 [Example 45] | – | -17.3% | 150 nM | 23 nM | – |
| Cn1nnc(-c2ccc(C(F)F)cn2)c1COc1ccc(-n2ccnc2C#N)nn1 [Example 46] | – | -26.3% | 220 nM | 10.4 nM | – |
| Cc1nnn(-c2ccc(C(F)F)cc2)c1COc1ccc(-n2cncn2)nn1 [reference compound] | 0.546 nM | – | – | – | – |
| Cc1nnn(-c2ccc(C(F)F)cn2)c1COc1ccc(-n2cnc(C(N)=O)c2)nn1 [Example 36] | – | – | > 8890 nM | – | – |
| Cc1nnn(-c2ccc(C(F)F)cn2)c1COc1ccc(-n2cc(F)cn2)nn1 [Example 54, 3-({1-[5-(difluoromethyl)pyridin-2-yl]-4-methyl-1H-1,2,3-triazol-5-yl}methoxy)-6-(4-fluoro-1H-pyrazol-1-yl)pyridazine] | – | -34.7% | 14 nM | 15 nM | – |

Results, then the compound that gave them:

| Ki [1, 3] | Assay B: GABAA α 5 β 3 γ 2 Emax vs GABA [2] | Ki [1, 4] | EC50 [2] | Ki ([1]; compounds of the present invention, read-out: Assay A: GABAA α5 β3 γ2S Ki) | SMILES |
| --- | --- | --- | --- | --- | --- |
| 0.126 nM | – | – | – | – | Cc1nnn(-c2ccc(C(F)F)cc2)c1COc1ccc(-n2cnc(C#N)c2)nn1 [reference compound] |
| – | -6.7% | 12 nM | – | – | Cn1nnc(-c2ccc(C(F)F)cn2)c1COc1ccc(-c2cncc(C#N)c2)nn1 [Example 27] |
| 0.249 nM | – | – | – | – | Cc1nnn(-c2ccc(C(F)F)cc2)c1COc1ccc(-c2cnccn2)nn1 [reference compound] |
| – | -20.3% | 32 nM | 24.3 nM | 0.032 nM | Cc1nnn(-c2ccc(C(F)F)cn2)c1COc1ccc(-n2cncn2)nn1 [Example 55] |
| – | -21.3% | 2 nM | 43.7 nM | – | CNc1cc(C)nn1-c1ccc(OCc2c(-c3ccc(C(F)F)cn3)nnn2C)nn1 [Example 41] |
| – | -10.3% | 8 nM | 32.7 nM | – | CCc1cn(-c2ccc(OCc3c(-c4ccc(C(F)F)cn4)nnn3C)nn2)nc1N [Example 40] |
| 0.12 nM | – | – | – | – | Cc1nnn(-c2ccc(C(F)F)cc2)c1COc1ccc(-c2ccn[nH]2)nn1 [reference compound] |
| – | -5.3% | 14 nM | – | – | CNc1cc(-c2ccc(OCc3c(-c4ccc(C(F)F)cn4)nnn3C)nn2)ccn1 [Example 26] |
| – | -9% | 6 nM | 44.5 nM | – | Cc1nnn(-c2ccc(C(F)F)cn2)c1COc1ccc(-c2cncc(C#N)c2)nn1 [Example 13] |
| – | -27.3% | 15 nM | 29 nM | – | Cn1nnc(-c2ccc(C(F)F)cn2)c1COc1ccc(-n2cc(Cl)cn2)nn1 [Example 51, 3-(4-chloro-1H-pyrazol-1-yl)-6-({4-[5-(difluoromethyl)pyridin-2-yl]-1-methyl-1H-1,2,3-triazol-5-yl}methoxy)pyridazine] |

Source: patent US20230286946A1, “DIFLUOROMETHYL-PYRIDIN-2-YL TRIAZOLES” (Boehringer Ingelheim International GmbH, priority 2020, published 2023)
